Results on nine compounds are retold here after article PMC11898650, “Morpholine-Substituted Tetrahydroquinoline Derivatives as Potential mTOR Inhibitors: Synthesis, Computational Insights, and Cellular Analysis” (Cancers, 2025).

Structures are written as SMILES.

Assay [1] relates to lung cancer (A-549) cell line. In words: MTT antiproliferative assay, A549. Type of assay: cell-based, human. The note with it: 48 h; for IC50: Homo sapiens. How it is done:
(§1) To evaluate the antiproliferative activity of the synthesized tetrahydroquinoline derivatives, three distinct human cancer cell lines were selected: breast cancer (MCF-7), lung cancer (A-549), and triple-negative breast cancer (MDA-MB-231). Furthermore, the synthesized compounds were tested on the VERO cell line to assess their potential toxicity. The VERO cell line, commonly derived from the kidney of an adult African green monkey, is widely used for toxicity studies. To evaluate the toxicity of the synthesized compounds, this cell line was utilized in the present study. The VERO cells were cultured using […] medium. The F-12 Ham’s medium was used to cultivate the lung cancer (A-549) cell lines. DMEM was used to cultivate the cell lines for breast cancer (MCF-7) and triple-negative breast cancer (MDA-MB-231). Because it feeds the cell line, 5% fatal bovine serum (FBS) was used to make the whole medium. To further protect the cell line from contamination, 0.5% pen–strep (penicillin + streptomycin) was added to all the mediums. All of these cell lines were cultivated in sterile, vented T-75 and/or T-25 flasks that were kept at 37 °C and supplied with 5% CO2. All of the compounds’ stock solutions were prepared in DMSO, and dilutions were made in the appropriate media so that the 96-well plates’ final DMSO content was not greater than 0.1%. First, each drug was tested in triplicate against every cell line at a 25 µM dose. […] On the first day, 1 × 10^4 cells were planted, and 24 h later, the chemicals were added. The MTT dye was added after the compounds and cells had been cultured for 48 h. After four hours, the MTT dye was taken out of the wells. Each well received 100 µL of DMSO to dissolve the formazan crystals that had formed as a result of the living cells, and absorbance at 570 nm was measured.
(Tetrazolium assays rely on reduction of a dye to a coloured formazan, in cell work by metabolically active cells.)

The subject of assay [2] is breast cancer (MCF-7) cell line. Description: MTT antiproliferative assay, MCF-7. As to conditions: Homo sapiens, MCF7, 48 h. Type of assay: cell-based. How it is done: as §1
The test system of the next assay is VERO cell line. In words: MTT toxicity assay, VERO. Type of assay: cell-based, African green monkey. The note with it: Chlorocebus sabaeus, 48 h, VERO normal cells. The procedure: as §1
In assay [3] the test system is triple-negative breast cancer (MDA-MB-231) cell line. Description: MTT antiproliferative assay, MDA-MB-231. It counts as cell-based, human. The note with it: 48 h; for IC50: Homo sapiens. How it is done: as §1
The subject of a further assay is A549 lung cancer cells. Description: Annexin V-FITC/PI apoptosis assay by flow cytometry. It counts as cell-based, human. The note with it: 48 h. How it is done: A549 lung cancer cells were seeded in six-well plates and cultured in F-12 Ham’s medium supplemented with 5% FBS, 0.5% penicillin–streptomycin, and maintained in a 5% CO2 atmosphere at 37 °C for 24 h. […] Each condition was maintained in duplicate, with DMSO serving as the vehicle control, while 5-fluorouracil and Everolimus were used as positive controls. The treated cells, along with the DMSO control group, were incubated for 48 h. After incubation, the media were removed, and 1 mL of trypsin was added to each well for approximately one minute, followed by neutralization with 4 mL of fresh medium. Subsequent steps were carried out following the protocol of the Annexin V-FITC apoptosis detection kit (Ref No: BMS500FI, Lot No: 264043; Invitrogen, Waltham, MA, USA). The contents of each well were collected and transferred to centrifuge tubes, followed by centrifugation at 1000 RPM for 8 min. After removing the supernatant, the cell pellets were washed with PBS and subjected to another centrifugation step. The pellets were then resuspended in 1 mL of 1× binding buffer from the Annexin V-FITC apoptosis detection kit and incubated in the dark for 15–20 min. Subsequently, 500 µL of this cell suspension was transferred to individual plastic flow cytometry tubes. Each tube was supplemented with 10 µL of propidium iodide (PI) and 5 µL of Annexin V-FITC conjugate. The tubes were then incubated in the dark for 10 min before analyzing cell apoptosis using flow cytometry.
For orientation: In flow cytometry, cells or beads pass a laser one at a time.

For `O=c1[nH]cc(F)c(=O)[nH]1` [Compound 5-FU, 5-fluorouracil, reference compound], the IC50 in assay [1] is 0.28 ± 0.008 µM; in assay [2], 0.72 ± 0.03 µM; in the assay on VERO cell line, > 25 µM; in assay [3], 3.39 ± 0.37 µM.
Regarding `O=C(Nc1ccc2c(c1)N(C(=O)N1CCCCC1)CCC2)c1cc(F)cc(C(F)(F)F)c1` [Compound 10g, 3-Fluoro-N-(1-(piperidine-1-carbonyl)-1,2,3,4-tetrahydroquinolin-7-yl)-5-(trifluoromethyl)benzamide], the IC50 in assay [1] was 0.68 ± 0.13 µM; in assay [2], 2.5 ± 0.16 µM; with VERO cell line, > 25 µM; in assay [3] it was > 25 µM.
Turning to `O=C(Nc1ccc2c(c1)N(C(=O)N1CCOCC1)CCC2)c1cc(C(F)(F)F)cc(C(F)(F)F)c1` [Compound 10e, N-(1-(Morpholine-4-carbonyl)-1,2,3,4-tetrahydroquinolin-7-yl)-3,5-bis(trifluoromethyl)benzamide], the IC50 was found to be 0.033 ± 0.003 µM in assay [1], 2.89 ± 0.013 µM in assay [2], 8.86 ± 0.03 µM in the assay with VERO cell line and 0.63 ± 0.02 µM in assay [3]. Further, the Necrosis in the assay with A549 lung cancer cells (A549, 3 µM) is reported as 0.05%; in the assay on A549 lung cancer cells (A549, 6 µM) it was 0.01%. In the assay on A549 lung cancer cells (A549, 3 µM), the “apoptosis (early and last phase combined)” value was 75.7%. In the assay with A549 lung cancer cells (A549, 6 µM), the “Early Apoptosis” value was 70.00%. The “Late Apoptosis” value in the assay on A549 lung cancer cells (A549, 6 µM) is 20.37%.
Consider `O=C(Nc1ccc2c(c1)N(C(=O)N1CCCCC1)CCC2)c1cc(F)cc(F)c1` [Compound 10f, 3,5-Difluoro-N-(1-(piperidine-1-carbonyl)-1,2,3,4-tetrahydroquinolin-7-yl)benzamide], for which, in assay [1], the “A549 (IC50 µM)” value was “no activity”. The IC50 in assay [1] was > 25 µM; in assay [2], 4.47 ± 0.013 µM; in the assay with VERO cell line, > 25 µM; in assay [3] it was > 25 µM. Moreover, in assay [3], the “MDA-MB-231 (IC50 µM)” value is recorded as “no activity”.
Regarding `O=C(Nc1ccc2c(c1)N(C(=O)N1CCOCC1)CCC2)c1cc(F)cc(C(F)(F)F)c1` [Compound 10d, 3-Fluoro-N-(1-(morpholine-4-carbonyl)-1,2,3,4-tetrahydroquinolin-7-yl)-5-(trifluoromethyl)benzamide], the half-inhibitory concentration (IC50) in assay [1] was 0.062 ± 0.01 µM; in assay [2] it was 0.58 ± 0.11 µM; in the assay with VERO cell line, > 25 µM; in assay [3], 1.003 ± 0.008 µM. Further, the “apoptosis (early and last phase combined)” value in the assay on A549 lung cancer cells (A549, 3 µM) is 29.35%; with A549 lung cancer cells (A549, 6 µM), 77.66%.
Turning to `CO[C@H]1C[C@@H]2CC[C@@H](C)[C@@](O)(O2)C(=O)C(=O)N2CCCC[C@H]2C(=O)O[C@H]([C@H](C)C[C@@H]2CC[C@@H](OCCO)[C@H](OC)C2)CC(=O)[C@H](C)/C=C(\C)[C@@H](O)[C@@H](OC)C(=O)[C@H](C)C[C@H](C)/C=C/C=C/C=C/1C` [Everolimus, reference compound], the IC50 in assay [1] was 0.09 ± 0.01 µM; in assay [2] it was 5.86 ± 0.07 µM; with VERO cell line it was > 25 µM; in assay [3], 7.76 ± 0.37 µM.
For `O=C(Nc1ccc2c(c1)N(C(=O)N1CCCCC1)CCC2)c1cc(C(F)(F)F)cc(C(F)(F)F)c1` [Compound 10h, N-(1-(Piperidine-1-carbonyl)-1,2,3,4-tetrahydroquinolin-7-yl)-3,5 bis(trifluoromethyl)benzamide], in that order: 3.36 ± 0.71 µM, 0.087 ± 0.007 µM, > 25 µM and 1.29 ± 0.032 µM.
As for `O=C(Nc1ccc2c(c1)N(C(=O)C1CCCCC1)CCC2)c1ccc(OC(F)(F)F)cc1` [Compound 10b, N-(1-(Cyclohexanecarbonyl)-1,2,3,4-tetrahydroquinolin-7-yl)-4-(trifluoromethoxy)benzamide], the IC50 in assay [1] was 4.72 ± 0.11 µM; in assay [2], > 25 µM; with VERO cell line it was 9.82 ± 0.08 µM; in assay [3], 6.37 ± 0.19 µM.
As for `O=C(Nc1ccc2c(c1)N(C(=O)C1CCOCC1)CCC2)c1ccc(OC(F)(F)F)cc1` [Compound 10a, N-(1-(Tetrahydro-2H-pyran-4-carbonyl)-1,2,3,4-tetrahydroquinolin-7-yl)-4-(trifluoromethoxy)benzamide], the IC50 in assay [1] is 1.06 ± 0.02 µM; in assay [2] it was 4.34 ± 0.12 µM; in the assay on VERO cell line, > 25 µM; in assay [3], 8.16 ± 0.33 µM.

In general, IC50 refers to the point on the concentration scale where inhibition reaches its midpoint. A higher IC50 goes with a need for much substance.
